The record followed here is patent publication US6495591B1, “Fungal efflux pump inhibitors” (Essential Therapeutics, Inc., priority 1997, dated 2002).

Like-named read-outs stand apart in the source and are kept apart here.

Holding throughout (type): cell-based
Assay [1] concerns YEM 13 C. albicans BEN up. Description: microbe, parasite or virus in culture. As to conditions: YEM 13, 24 hrs, 80% inhibition; for MIC of compound in the presence of fluconazole (+): 1/8 × MIC of fluconazole.
For assay [2], the system named is YEM 15 C. albicans, CDR1CDR2 up. Nature of the assay: microbe, parasite or virus in culture. As to conditions: YEM 15, 24 hrs, 80% inhibition; for MIC of compound in the presence of fluconazole (+): 1/8 × MIC of fluconazole.
The subject of a further assay is YEM 53 C. krusei. Description: FEPI MIC with/without 1/8 fluconazole MIC at 24 hrs (Table 11).
The test system of assay [3] is YEM 17 C. glabrata, CgCDR up. Particulars: 24 hrs, 80% inhibition; for MIC of compound in the presence of fluconazole (+): 1/8 × MIC of fluconazole.
For a further assay, the system named is YEM 51 C. glabrata wt. Nature of the assay: FEPI MIC with/without 1/8 fluconazole MIC at 24 hrs (Table 11).
The test system of another assay is YEM 30 C. albicans wt. Described as above.
The test system of assay [4] is YEM 24 C. albicans ΔCDR1, ΔCDR2. Description: microbe, parasite or virus in culture. As to conditions: YEM 24, 24 hrs, 80% inhibition; for MIC of compound in the presence of fluconazole (+): 1/8 × MIC of fluconazole.
Assay [5] relates to YEM 27 C. albicans ΔCDR1ΔCDR2 ΔBENΔFLU1. Nature of the assay: microbe, parasite or virus in culture. Particulars: YEM 27, 24 hrs, 80% inhibition; for MIC of compound in the presence of fluconazole (+): 1/8 × MIC of fluconazole.
A further assay relates to Aspergillus fumigatus. Description: FEPI MICs in combination with 1/4 the azole's MIC (Table 12). Details: FEPI MIC (alone): unit not given here. Particulars: for FEPI MIC with itraconazole, 60% Inh / FEPI MIC with itraconazole, 80% Inh: itraconazole 0.063 μg/ml (1/4 MIC); for FEPI MIC with ketoconazole, 60% Inh / FEPI MIC with ketoconazole, 80% Inh: ketoconazole 4 μg/ml (1/4 MIC); for FEPI MIC (alone): no azole, 35° C., CM Broth. How it is done: The combinations were tested against a series of Candida strain with known expression of efflux pumps or with complete deletion of all known pumps and Aspergillus fumigatus. Results are reported as minimum inhibitory concentration (MIC) of […] in the presence or absence of […]. A total of 27 distinct milbemycins were studied.

Where [6] appears, read: YEM 53, 1/8 × MIC of fluconazole, 24 hrs, 80% inhibition.
Where [7] appears, read: YEM 51, 1/8 × MIC of fluconazole, 24 hrs, 80% inhibition.
The mark [8] stands for this setting: YEM 30, 1/8 × MIC of fluconazole, 24 hrs, 80% inhibition.
Where [9] appears, read: fluconazole 32 μg/ml (1/4 MIC), 60% inhibition.
Setting [10] is: fluconazole 32 μg/ml (1/4 MIC), 80% inhibition.

Regarding `CC1=C[C@H]2C(=O)O[C@H]3C[C@@H](C/C=C(\C)C[C@@H](C)/C=C/C=C4\CO[C@H]([C@@H]1O)[C@@]42O)O[C@@]1(CC[C@H](C)[C@@H](C(C)C)O1)C3` [Compound 12, Milbemycin D], the MIC of compound in the presence of fluconazole (+) was greater than 64 µg/mL in [1]; “≦0.03” in assay [2]; 8 µg/mL in the assay with YEM 53 C. krusei; 32 µg/mL in assay [3]; 8 µg/mL in the assay with YEM 51 C. glabrata wt; 4 µg/mL with YEM 30 C. albicans wt. The MIC of compound in the presence of fluconazole (+) is greater than 64 µg/mL in assay [4] and 64 µg/mL in [5]. Further, the MIC of compound in the absence of fluconazole (−) in assay [1] is greater than 64 µg/mL; in assay [2], greater than 64 µg/mL; in the assay on YEM 53 C. krusei (YEM 53, 24 hrs, 80% inhibition) it was greater than 64 µg/mL; in assay [3], greater than 64 µg/mL; in the assay on YEM 51 C. glabrata wt (YEM 51, 24 hrs, 80% inhibition), greater than 64 µg/mL; with YEM 30 C. albicans wt (YEM 30, 24 hrs, 80% inhibition), greater than 64 µg/mL. Moreover, the MIC of compound in the absence of fluconazole (−) in assay [4] and in [5] was greater than 64 µg/mL each time. Further, in the assay on Aspergillus fumigatus, the “FEPI MIC with fluconazole, 60% Inh” value came out at 16. The “FEPI MIC with fluconazole, 80% Inh” value with Aspergillus fumigatus is given as greater than 64. In the assay with Aspergillus fumigatus (60% inhibition), the “FEPI MIC with itraconazole, 60% Inh” value was determined as 8. In addition, the “FEPI MIC with itraconazole, 80% Inh” value with Aspergillus fumigatus (80% inhibition) was greater than 64. Further, in the assay with Aspergillus fumigatus (60% inhibition), the “FEPI MIC with ketoconazole, 60% Inh” value is reported as 0.125. For the same compound, in the assay with Aspergillus fumigatus (80% inhibition), the “FEPI MIC with ketoconazole, 80% Inh” value was 1. In addition, in the assay on Aspergillus fumigatus (80% inhibition), the “FEPI MIC (alone)” value is given as greater than 64.
For the compound `C/C1=C\C[C@@H]2CC(C[C@]3(CC[C@H](C)[C@@H](C)O3)O2)OC(=O)c2cc(C)c(O)cc2/C(C)=C/C=C/[C@H](C)C1` [Compound 13, Milbemycin β3], the MIC of compound in the presence of fluconazole (+) in [1] is 64 µg/mL; in assay [2], 8 µg/mL; in the assay on YEM 53 C. krusei (setting [6]), greater than 64 µg/mL; in assay [3], 64 µg/mL; in the assay with YEM 51 C. glabrata wt (setting [7]), greater than 64 µg/mL; in the assay with YEM 30 C. albicans wt (setting [8]), 0.125 µg/mL. Further, the MIC of compound in the presence of fluconazole (+) in [4] and in [5] was greater than 64 µg/mL throughout. For the same compound, the MIC of compound in the absence of fluconazole (−) was greater than 64 µg/mL in assay [1]; greater than 64 µg/mL in assay [2]; greater than 64 µg/mL with YEM 53 C. krusei (YEM 53, 24 hrs, 80% inhibition); greater than 64 µg/mL in assay [3]; greater than 64 µg/mL in the assay on YEM 51 C. glabrata wt (YEM 51, 24 hrs, 80% inhibition); greater than 64 µg/mL in the assay with YEM 30 C. albicans wt (YEM 30, 24 hrs, 80% inhibition). The MIC of compound in the absence of fluconazole (−) in assay [4] and in assay [5] was greater than 64 µg/mL in each case. Besides, the “FEPI MIC with fluconazole, 60% Inh” value in the assay with Aspergillus fumigatus (setting [9]) was 32. For the same compound, the “FEPI MIC with fluconazole, 80% Inh” value in the assay on Aspergillus fumigatus (setting [10]) is listed as greater than 64. In addition, the “FEPI MIC with itraconazole, 60% Inh” value in the assay with Aspergillus fumigatus (60% inhibition) worked out at 64. Besides, the “FEPI MIC with itraconazole, 80% Inh” value with Aspergillus fumigatus (80% inhibition) is greater than 64. Besides, in the assay with Aspergillus fumigatus (60% inhibition), the “FEPI MIC with ketoconazole, 60% Inh” value came out at 0.5. The “FEPI MIC with ketoconazole, 80% Inh” value in the assay on Aspergillus fumigatus (80% inhibition) worked out at 0.5. In addition, in the assay with Aspergillus fumigatus (80% inhibition), the “FEPI MIC (alone)” value was greater than 64.
`CCC(C)C1OC2(CC3CC(CC=C(C)C(O)C(C)C=CC=C4COC5C(O)C(C)=CC(C(=O)O3)C45O)O2)CC(O)C1C` (stereo not drawn) [Compound 14, Avermectin β2a aglycone]: the MIC of compound in the presence of fluconazole (+) in assay [1] was greater than 64 µg/mL; in assay [2] it was 2 µg/mL; in the assay on YEM 53 C. krusei (setting [6]) it was greater than 64 µg/mL; in assay [3], 16 µg/mL; in the assay with YEM 51 C. glabrata wt (setting [7]) it was 16 µg/mL; with YEM 30 C. albicans wt (setting [8]) it was 4 µg/mL. Besides, the MIC of compound in the presence of fluconazole (+) in assay [4] and in assay [5] was greater than 64 µg/mL each time. In addition, the MIC of compound in the absence of fluconazole (−) in [1] was greater than 64 µg/mL; in [2] it was greater than 64 µg/mL; in the assay with YEM 53 C. krusei (YEM 53, 24 hrs, 80% inhibition), greater than 64 µg/mL; in assay [3], greater than 64 µg/mL; with YEM 51 C. glabrata wt (YEM 51, 24 hrs, 80% inhibition) it was greater than 64 µg/mL; in the assay on YEM 30 C. albicans wt (YEM 30, 24 hrs, 80% inhibition), greater than 64 µg/mL. Moreover, the MIC of compound in the absence of fluconazole (−) in assay [4] and in assay [5] was greater than 64 µg/mL each time. Also, in the assay with Aspergillus fumigatus (setting [9]), the “FEPI MIC with fluconazole, 60% Inh” value was 64. The “FEPI MIC with fluconazole, 80% Inh” value with Aspergillus fumigatus (setting [10]) is listed as greater than 64. Besides, the “FEPI MIC with itraconazole, 60% Inh” value in the assay on Aspergillus fumigatus (60% inhibition) is on record as greater than 64. Besides, in the assay with Aspergillus fumigatus (80% inhibition), the “FEPI MIC with itraconazole, 80% Inh” value was greater than 64. Moreover, the “FEPI MIC with ketoconazole, 60% Inh” value in the assay with Aspergillus fumigatus (60% inhibition) stood at 2. Also, the “FEPI MIC with ketoconazole, 80% Inh” value with Aspergillus fumigatus (80% inhibition) is 16. Further, the “FEPI MIC (alone)” value in the assay with Aspergillus fumigatus (80% inhibition) is recorded as greater than 64.
Take `C/C1=C\C[C@@H]2C[C@@H](C[C@]3(CC[C@H](C)[C@@H](C)O3)O2)OC(=O)[C@@H]2C=C(COC(=O)C(C)C)[C@@H](O)[C@H]3OC/C(=C\C=C\[C@H](C)C1)[C@]32O` [Compound 20, 4a-O-isobutyryl milbemycin α1]: the MIC of compound in the presence of fluconazole (+) was 64 µg/mL in assay [1]; “≦0.03” in assay [2]; 4 µg/mL in the assay with YEM 53 C. krusei (setting [6]); 4 µg/mL in assay [3]; 2 µg/mL in the assay with YEM 51 C. glabrata wt (setting [7]); “≦0.06” with YEM 30 C. albicans wt (setting [8]). Further, the values for the MIC of compound in the presence of fluconazole (+) in [4] and in assay [5] were greater than 64 µg/mL and 64 µg/mL, respectively. In addition, the MIC of compound in the absence of fluconazole (−) in assay [1] was greater than 64 µg/mL; in assay [2], greater than 64 µg/mL; with YEM 53 C. krusei (YEM 53, 24 hrs, 80% inhibition), greater than 64 µg/mL; in [3], greater than 64 µg/mL; in the assay with YEM 51 C. glabrata wt (YEM 51, 24 hrs, 80% inhibition), greater than 64 µg/mL; in the assay on YEM 30 C. albicans wt (YEM 30, 24 hrs, 80% inhibition), greater than 64 µg/mL. Also, the MIC of compound in the absence of fluconazole (−) in assay [4] and in assay [5] was greater than 64 µg/mL throughout. Moreover, in the assay on Aspergillus fumigatus (setting [9]), the “FEPI MIC with fluconazole, 60% Inh” value worked out at 2. The “FEPI MIC with fluconazole, 80% Inh” value in the assay on Aspergillus fumigatus (setting [10]) is reported as 4. The “FEPI MIC with itraconazole, 60% Inh” value in the assay on Aspergillus fumigatus (60% inhibition) is reported as 0.25. Moreover, the “FEPI MIC with itraconazole, 80% Inh” value in the assay with Aspergillus fumigatus (80% inhibition) amounted to 8. In the assay with Aspergillus fumigatus (60% inhibition), the “FEPI MIC with ketoconazole, 60% Inh” value is listed as “≦0.063”. Further, the “FEPI MIC with ketoconazole, 80% Inh” value in the assay on Aspergillus fumigatus (80% inhibition) is reported as “≦0.063”. Besides, the “FEPI MIC (alone)” value in the assay on Aspergillus fumigatus (80% inhibition) was 64.
